≈ marks a conversion by molar mass, not a printed value. Entries after “also recorded” stand apart in the source; their conditions may differ. Where a name gives a salt, the structure may show the parent alone. Read-outs that look alike come from different tables or passages of the source. Where a SMILES comes first, the peptide text is derived from it. Where no end group is shown, it is not given here. [ ]: non-standard residue; d: D form. hArg = N=C(N)NCCCC[C@H](N)C(=O)O; 2Thi = N[C@@H](Cc1cccs1)C(=O)O
Assays:
[1] = system: A. baumannii ATCC 19606; format: cell-based, Acinetobacter baumannii; conditions: ATCC 19606, 20 h
Method: (§1) The antimicrobial activities of the peptides were tested against E. coli ATCC 25922, P. aeruginosa ATCC 27853, carbapenem-resistant P. aeruginosa SIPI-012, A. baumannii ATCC 19606, carbapenem-resistant A. baumannii SIPI-025, S. aureus ATCC 25923, and C. albicans ATCC 10231. The minimum inhibitory concentration (MIC) values were determined using the microdilution method according to Clinical and Laboratory Standards Institute guidelines ([CLSI, 2008], [2012]). The peptides were dissolved in 10 mM PB to a concentration of 1280 μg/mL as stock solutions.
(§2) For inoculum preparation of bacteria, morphologically similar colonies selected from fresh MH agar plates were transferred using a loop into approximately 10 mL of MH broth in a capped test tube and vortexed. The suspension was adjusted with MH broth to achieve a turbidity equivalent to a 0.5 McFarland standard (BaSO4 solution prepared spectrophotometrically). A working suspension was prepared by making a 1:15 dilution followed by a 1:20 dilution of the stock suspension with MH broth medium to obtain approximately 5 × 10^5 CFU/mL. For inoculum preparation of yeast, five fresh colonies of approximately 1 mm diameter were picked from 24-hour-old cultures of C. albicans and suspended in 5 mL of sterile 0.85% saline. The resulting suspension was vortexed and the cell density was adjusted by adding sufficient sterile saline to achieve a turbidity equivalent to a 0.5 McFarland standard. A working suspension was prepared by making a 1:100 dilution followed by a 1:20 dilution of the stock suspension with RPMI 1640 broth medium to obtain 0.5 × 10^3 to 2.5 × 10^3 CFU/mL. Intermediate twofold dilutions of the peptides were prepared in MH broth and RPMI 1640 medium, and 90 μL aliquots were added to each well in addition to 10 μL of the inoculum prepared above.
(§3) Each plate included a growth control well and a sterility (uninoculated) control well. Colistin, vancomycin hydrochloride, and amphotericin B were used as positive controls for gram-negative bacteria, gram-positive bacteria, and fungi, respectively. The bacterial and fungal plates were incubated at 37°C for 20 h and 35°C for 48 h, respectively, both under ambient atmosphere. The inhibition of microbial growth was assessed visually. The MICs were determined from independent triplicate assays.

[2] = system: carbapenem-resistant A. baumannii (CRAB) SIPI-025; format: cell-based, Acinetobacter baumannii; conditions: carbapenem-resistant (CRAB) SIPI-025, 20 h
Method: as §1, §2, §3

[3] = system: proteases secreted by S. aureus ATCC 25923; test: in vitro; conditions: for Percent of remained peptide amount after incubation (%): S. aureus ATCC 25923 culture supernatant (MH broth), pH 8.0, 0.22 μm filtered, peptide 0.5 mg/mL, 37°C, 24 h, RP-HPLC; for remaining at 24 h, 0.5 mg/mL: Staphylococcus aureus, S. aureus ATCC 25923 culture supernatant, pH 8
Method: The stabilities of the peptides toward proteases secreted by E. coli ATCC 25922, P. aeruginosa ATCC 27853, A. baumannii ATCC 19606, S. aureus ATCC 25923, and C. albicans ATCC 10231 were also examined. Microbial supernatants were prepared by resuspending single colonies of each strain in 20 mL of an appropriate culture medium followed by incubation at 37°C overnight. MH broth and 2% tryptone/2% dextrose were used as the culture media for bacteria and yeast, respectively. Each culture was then centrifuged at 12,000 × g for 10 min and the supernatant was adjusted to pH 8.0 with HCl or NaOH and then filtered through a 0.22 μm sterile filter membrane ([Zaet et al., 2017]). The peptides were then dissolved in the filtered supernatants to a concentration of 0.5 mg/mL, and the peptide-free supernatants were used as negative controls. The samples were incubated at 37°C for 24 h in a water bath and then analyzed by RP-HPLC as described above.

[4] = system: human plasma proteases; test: in vitro
[5] = system: human erythrocytes; test: Hemolytic activity assay; format: cell-based; conditions: human RBC in PB, 37°C, 1 h, OD420, total lysis control 0.1% SDS, three technical replicates
Method: Whole blood was obtained from a healthy volunteer. The red blood cells (RBC) were then centrifuged (800 × g, 10 min), washed twice with PB, resuspended in 1 mL of PB, and incubated with various concentrations of the peptides (32–128 μM) at 37°C for 1 h. As a positive control, total lysis of the RBC was accomplished by incubation with 0.1% SDS. For each condition, three technical replicates were performed. After incubation, the RBC were centrifuged at 800 × g for 10 min and the amount of hemoglobin released into the supernatant was determined by measuring the optical density OD420 using a SpectraMax i3x microplate reader (Molecular Devices) ([Zaet et al., 2017]).

[6] = system: C. albicans ATCC 10231; test: microbe, parasite or virus in culture; format: cell-based, Candida albicans
Method: as §1, §2, §3

[7] = system: P. aeruginosa ATCC 27853; format: cell-based, Pseudomonas aeruginosa; conditions: ATCC 27853, 20 h
Method: as §1, §2, §3

[8] = system: carbapenem-resistant P. aeruginosa (CRPA) SIPI-012; format: cell-based, Pseudomonas aeruginosa; conditions: carbapenem-resistant (CRPA) SIPI-012, 20 h
Method: as §1, §2, §3

[9] = system: RAW 264.7 cells; test: Cell viability assay (MTT); format: cell-based, mouse; conditions: 1–128 μM peptide in DMEM with 4% FBS, 42 h, 595 nm, triplicate
Method: The peptides were dissolved in ddH2O to a concentration of 256 μM. RAW 264.7 cells were cultured in 100 μL of DMEM containing 10% FBS and seeded at a density of 1 × 10^4 cells in a 96-well culture plate. The plate was incubated at 37°C under 5% CO2 atmosphere overnight. After attaining 80% confluency, the cells were treated with various concentrations of the peptides (1–128 μM) dissolved in DMEM containing 4% FBS for 42 h. Cytotoxicity was determined using the MTT tetrazolium reduction assay and quantified spectrophotometrically at 595 nm using a SpectraMax i3x microplate reader. The cell viability was calculated with respect to control samples treated only with DMEM containing 4% FBS ([Khara et al., 2016]). Each test was done in triplicate and the concentration required for 50% inhibition of viability (IC50) was determined.

[10] = system: E. coli ATCC 25922; format: cell-based, Escherichia coli; conditions: ATCC 25922, 20 h
Method: as §1, §2, §3

[11] = system: S. aureus ATCC 25923; test: microbe, parasite or virus in culture; format: cell-based, Staphylococcus aureus
Method: as §1, §2, §3

[12] = system: Trypsin; test: trypsin in 0.1 M NH4HCO3 buffer (pH 8.2); conditions: 37°C, up to 24 h

| Compound | MIC [1] | MIC [2] | Percent of remained peptide amount after incubation (%) [3] | metabolised at 2 h, 0.1 mg/mL [4] | metabolised at 4 h, 0.1 mg/mL [4] | Hemolysis rate (%) ([5]; 64 μM) | Hemolysis rate (%) ([5]; 128 μM) | MIC ([6]; ATCC 10231, 48 h) | MIC [7] | MIC [8] | IC50 [9] | MIC [10] | MIC ([11]; ATCC 25923, 20 h) | MIC ([11]; Staphylococcus aureus, ATCC25923, 20 h) | remaining at 24 h, 0.5 mg/mL [3] | fragment found [12] | MIC ([6]; Candida albicans, ATCC10231, C. albicans ATCC 10231, RPMI 1640, 35°C, 48 h, visual, independent triplicate assays, read-out: MIC) |
| --- | --- | --- | --- | --- | --- | --- | --- | --- | --- | --- | --- | --- | --- | --- | --- | --- | --- |
| CC(C)C[C@H](NC(=O)[C@H](Cc1ccc(O)cc1)NC(=O)[C@H](CCCCN)NC(=O)[C@H](CC(C)C)NC(=O)[C@H](CC(C)C)NC(=O)[C@H](CCCCN)NC(=O)[C@H](CCCCN)NC(=O)[C@H](Cc1ccccc1)NC(=O)[C@H](CC(C)C)NC(=O)[C@H](CCCNC(=N)N)NC(=O)[C@@H](N)CCCCN)C(=O)N[C@@H](CCCNC(=N)N)C(=O)N[C@@H](CCCCN)C(=O)N[C@@H](Cc1cccs1)C(N)=O [UP08] (H-KRLFKKLLKYLRK[2Thi]-NH2) | 2 µg/mL (≈ 1.06 µM) | 2 µg/mL (≈ 1.06 µM) | 26.85 ± 2.61% | > 40% | > 50% | 52.49 ± 2.25 % | 86.84 ± 1.24 % | 4 µg/mL (≈ 2.12 µM) | 2 µg/mL (≈ 1.06 µM) | 4 µg/mL (≈ 2.12 µM) | 14.6 ± 2.96 µM | 2 µg/mL (≈ 1.06 µM) | 1 µg/mL (≈ 0.53 µM) | – | – | – | – |
| CN[C@H](CC(C)C)C(=O)N[C@H]1C(=O)N[C@@H](CC(N)=O)C(=O)N[C@H]2C(=O)N[C@H]3C(=O)N[C@H](C(=O)N[C@H](C(=O)O)c4cc(O)cc(O)c4-c4cc3ccc4O)[C@H](O)c3ccc(c(Cl)c3)Oc3cc2cc(c3O[C@@H]2O[C@H](CO)[C@@H](O)[C@H](O)[C@H]2O[C@H]2C[C@](C)(N)[C@H](O)[C@H](C)O2)Oc2ccc(cc2Cl)[C@H]1O [Van, vancomycin hydrochloride, reference compound] | – | – | – | – | – | – | – | – | – | – | – | – | – | 0.5 µg/mL | – | – | – |
| CC(C)C[C@H](NC(=O)[C@H](Cc1ccc(O)cc1)NC(=O)[C@H](CCCCN)NC(=O)[C@H](CC(C)C)NC(=O)[C@H](CC(C)C)NC(=O)[C@H](CCCCN)NC(=O)[C@H](CCCCN)NC(=O)[C@H](Cc1ccccc1)NC(=O)[C@H](CC(C)C)NC(=O)[C@H](CCCNC(=N)N)NC(=O)[C@@H](N)CCCCNC(=N)N)C(=O)N[C@@H](CCCNC(=N)N)C(=O)N[C@@H](CCCCN)C(=O)N[C@@H](Cc1cccs1)C(N)=O [UP10] (H-[hArg]RLFKKLLKYLRK[2Thi]-NH2) | 2 µg/mL (≈ 1.04 µM) | 2 µg/mL (≈ 1.04 µM) | – | > 40% | > 50% | 56.82 ± 2.62 % | 95.02 ± 1.84 % | 4 µg/mL (≈ 2.07 µM) | 1 µg/mL (≈ 0.519 µM) | 4 µg/mL (≈ 2.07 µM) | 22.8 ± 4.65 µM | 2 µg/mL (≈ 1.04 µM) | 0.5 µg/mL (≈ 0.259 µM) | – | 31.6 ± 7.81% | – | – |
| KRLFkkLLKYLRkF | – | – | – | – | – | – | – | – | – | – | – | – | – | – | – | (k) kLLK (Y) 6–9, major, 18 h; also recorded: (K) YLR (k) 10–12, major, 18 h; also recorded: (K) YLRkF 10–14, major, 18 h; also recorded: (K) RLFk (k) 2–5, major, 18 h | – |
| KRLFKRLFKYLRRF-NH2 [LP01] | 2 µg/mL | 2 µg/mL | – | > 40% | > 50% | 29.58 ± 0.83% | 37.14 ± 1.29 % | 4 µg/mL | 1 µg/mL | 4 µg/mL | 16.6 ± 3.79 µM | 2 µg/mL | 1 µg/mL | – | 33.3 ± 5.69% | – | – |
| RRIFKRLFKYLRRF-NH2 [LP02] | 2 µg/mL | 4 µg/mL | – | > 40% | > 50% | 24.18 ± 2.01% | 45.40 ± 2.40% | 8 µg/mL | 2 µg/mL | 8 µg/mL | 14.4 ± 1.44 µM | 2 µg/mL | 1 µg/mL | – | 19.7 ± 8.58% | – | – |
| CC(C)C[C@H](NC(=O)[C@H](Cc1ccc(O)cc1)NC(=O)[C@H](CCCCN)NC(=O)[C@H](CC(C)C)NC(=O)[C@H](CC(C)C)NC(=O)[C@H](CCCCN)NC(=O)[C@H](CCCCN)NC(=O)[C@H](Cc1cccs1)NC(=O)[C@H](CC(C)C)NC(=O)[C@H](CCCNC(=N)N)NC(=O)[C@@H](N)CCCCN)C(=O)N[C@@H](CCCNC(=N)N)C(=O)N[C@@H](CCCCN)C(=O)N[C@@H](Cc1cccs1)C(N)=O [UP07] (H-KRL[2Thi]KKLLKYLRK[2Thi]-NH2) | 2 µg/mL (≈ 1.06 µM) | 2 µg/mL (≈ 1.06 µM) | 24.86 ± 3.88% | > 40% | > 50% | 18.23 ± 2.76 % | 30.10 ± 2.61 % | 4 µg/mL (≈ 2.11 µM) | 1 µg/mL (≈ 0.528 µM) | 4 µg/mL (≈ 2.11 µM) | 17.5 ± 2.99 µM | 1 µg/mL (≈ 0.528 µM) | 1 µg/mL (≈ 0.528 µM) | – | – | – | – |
| krLFkkLLkYLrkF | – | – | – | – | – | – | – | – | – | – | – | – | – | – | – | krLFkkLLkYLr (k) 1–12, major, 18 h; also recorded: (r) LFkkLLkYLr (k) 3–12, major, 18 h | – |
| C[C@@H]1[C@H](O)[C@@H](C)/C=C/C=C/C=C/C=C/C=C/C=C/C=C/[C@H](O[C@@H]2O[C@H](C)[C@@H](O)[C@H](N)[C@@H]2O)C[C@@H]2O[C@](O)(C[C@@H](O)C[C@@H](O)[C@H](O)CC[C@@H](O)C[C@@H](O)CC(=O)O[C@H]1C)C[C@H](O)[C@H]2C(=O)O [AmB, amphotericin B, reference compound] | – | – | – | – | – | – | – | – | – | – | – | – | – | – | – | – | 0.25 µg/mL (≈ 0.271 µM) |

From PMC7688903 (Frontiers in Microbiology, 2020)
